Measured values from PubChem BioAssay AID743304 (Broad Institute, 2014).
Where “and” joins values, the source holds several entries; their conditions need not be identical. Identical values can stand only once. Calls of active or inactive are those of the source.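 The calls were made as follows: active = signal drop whose fitted half-maximal dose is no more than twice the top valid dose; inconclusive = flat curve with 30 to 70% inhibition, or unreliable fit; inactive = the rest, including rising signal.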

Test system: C. neoformans growth with sorbitol, alamar blue, 24 h
Assay: C. neoformans growth inhibition with sorbitol, dose response, mechanism study for C. neoformans lysis project, alamar blue, dry powder, set 3 (AID 743304)
Settings: not given

SMILES	AC50
COc1cccc(OCCn2c(=S)[nH]c3ccccc32)c1	26.1 µM
S=c1[nH]c2cccc(Cl)c2n1CCOc1ccccc1	5.74 µM and 5.16 µM
Cc1ccc(OCCn2c(SCCO)nc3ccccc32)c(C(C)C)c1	8.48 µM
Cc1ccc(OCCn2c(=S)[nH]c3ccccc32)c(C(C)C)c1	10.2 µM and 6.37 µM
Cc1ccc(C(C)C)c(OCCn2c(=S)[nH]c3cccc(C)c32)c1	16.4 µM
Fc1ccc2c(c1)[nH]c(=S)n2CCOc1ccccc1	25 µM and 23.1 µM
Fc1ccc2[nH]c(=S)n(CCOc3ccccc3)c2c1	23.5 µM
CC(C)c1ccccc1OCCn1c(=S)[nH]c2ccccc21	18.4 µM
Cc1ccc(OCCn2c(C)nc3ccccc32)cc1	6.48 µM
Cc1ccc(OCCn2c(=S)[nH]c3ccccc32)cc1	6.11 µM
Cc1ccc2c(c1)[nH]c(=S)n2CCOc1ccccc1	11.6 µM and 12.9 µM
S=c1[nH]c2ccccc2n1CCOc1ccccc1Cl	24 µM
Fc1ccccc1OCCn1c(=S)[nH]c2ccccc21	21.9 µM
Fc1cccc(OCCn2c(=S)[nH]c3ccccc32)c1	20.5 µM
CC(C)c1ccc(OCCn2c(=S)[nH]c3ccccc32)cc1	4.21 µM
Cc1ccc(OCCn2cnc3ccccc32)cc1	5.96 µM
Fc1cccc2c1[nH]c(=S)n2CCOc1ccccc1	21.4 µM and 22.2 µM and 23.1 µM
Cc1cccc(OCCn2c(=S)[nH]c3cc(F)ccc32)c1	11.2 µM and 10.4 µM
S=c1[nH]c2ccccc2n1CCOc1ccccc1	24.5 µM

SMILES	AC50
Cc1ccc(C(C)C)c(OCCn2c(=S)[nH]c3cccc(F)c32)c1	10.9 µM
S=c1[nH]c2ccccc2n1CCOc1ccc(Cl)cc1	6.3 µM
COc1ccc(OCCn2c(=S)[nH]c3ccccc32)cc1	26.2 µM
O=c1[nH]c2ccccc2n1CCOc1ccccc1	24.1 µM
Cc1ccccc1OCCn1c(=S)[nH]c2ccccc21	31.2 µM
Cc1cccc(OCCn2c(=S)[nH]c3c(F)cccc32)c1	16.4 µM and 16.6 µM
Cc1cccc2[nH]c(=S)n(CCOc3ccccc3)c12	14.2 µM
CCOc1ccc(OCCn2c(=S)[nH]c3ccccc32)cc1	11.1 µM
Cc1cccc(OCCn2c(=S)[nH]c3ccccc32)c1C	6.75 µM
Cc1cccc(OCCn2c(=S)[nH]c3ccccc32)c1	22.4 µM
CC(C)(C)c1ccc(OCCn2cnc3ccccc32)cc1	8.05 µM
Cc1ccc(C(C)C)c(OCCn2c(=S)[nH]c3ccccc32)c1	6.96 µM and 7.67 µM
Cc1ccc(C(C)C)c(OCCn2c(CO)nc3ccccc32)c1	33.6 µM
Fc1ccc(OCCn2c(=S)[nH]c3ccccc32)cc1	27.3 µM
CC(C)(C)c1ccccc1OCCn1c(=S)[nH]c2ccccc21	8.32 µM
Cc1ccc(OCCn2cnc3ccccc32)c(C(C)C)c1	24 µM
CC(C)(C)c1ccc(OCCn2c(=S)[nH]c3ccccc32)cc1	4.94 µM
Cc1ccc(C(C)C)c(OCCn2c(=S)[nH]c3cccc(Cl)c32)c1	7.25 µM

Test system: not listed separately
Assay: as above
Settings: C. neoformans growth with sorbitol, alamar blue, 24 h; at 35 µM (top of the series)

SMILES	activity change, negative = inhibition
Cc1cccc(OCCn2c(=S)[nH]c3cc(C(F)(F)F)ccc32)c1	8.97% (inactive)
Cc1ccc(OCCn2c(=S)[nH]c3ccccc32)c(C)c1	7.99% (inactive)
Cc1ccc(C(C)C)c(OCCn2c(=S)[nH]c3ccc(F)cc32)c1	14.7% (inactive)
Cc1ccc(C(C)C)c(OCCn2c(=S)[nH]c3cc(F)ccc32)c1	9.32% (inactive)
CC(C)c1ccccc1NCCn1c(=S)[nH]c2ccccc21	1.72% (inactive)
Cc1ccc(C(C)C)c(OCCn2c(=S)[nH]c3c(C)cccc32)c1	34.1% (inactive)
Cc1cccc(OCCn2c(=S)[nH]c3ccc(C(F)(F)F)cc32)c1	24.8% (inactive)
c1ccc(OCCn2cnc3ccccc32)cc1	39.4% (inactive)
Cc1ccc(C(C)C)c(OCCn2c(=S)[nH]c3ccc(Cl)cc32)c1	36.9% (inactive)
Cc1ccc(C(C)C)c(OCCn2c(=S)[nH]c3c(F)cccc32)c1	48.2% (inactive)
S=c1[nH]c2cc(Cl)ccc2n1CCOc1ccccc1	17.6% (inactive)
COc1ccccc1OCCn1c(=S)[nH]c2ccccc21	36.1% (inactive)
Cc1ccc(C)c(OCCn2c(=S)[nH]c3ccccc32)c1	-7.02% (inactive)
Cc1ccc(C(C)C)c(OCCn2c(=S)[nH]c3c(Cl)cccc32)c1	-14.9% (inactive)
